Data as given in patent US8735417B2, “Aminopyrimidines as Syk inhibitors” (Merck Sharp & Dohme Corp., priority 2009, dated 2014).

molecular target: T1, recombinant human GST-SYK (Homo sapiens, UniProt P43405); assay: Homogeneous Time-Resolved Fluorescence (HTRF) assay for the recombinant human SYK enzyme; type: biochemical; details: recombinant human GST-SYK 5 pM, ATP 25 μM, 10-dose titration; read-out: rhSYK Activity (IC50)
T1 construct: purchased Carna Biosciences 08-176
Experimental: Homogeneous Time-Resolved Fluorescence (HTRF) Assay for the Recombinant Human SYK Enzyme:
A recombinant GST-hSYK fusion protein was used to measure potency of compounds to inhibit human SYK activity. The recombinant human GST-SYK (Carna Biosciences #08-176) (5 pM final concentration) was incubated with various concentrations of the inhibitor diluted in DMSO (0.1% final concentration) for 10 minutes at room temperature in 15 mM Tris-HCl (pH 7.5), 0.01% tween 20, 2 mM DTT in 384 well plate format. To initiate the reaction the biotinylated substrate peptide (250 nM final concentration) that contains the phosphorylation site for SYK was added with magnesium (5 mM final concentration) and ATP (25 μM final concentration). Final volume of the reaction was 10 μL. Phosphorylation of the peptide was allowed to proceed for 45′ at room temperature. To quench the reaction and detect the phosphorylated product, 2 nM of a Europium-atiti-phosphotyrosine antibody (Perkin Elmer #AD0161) and 70 nM SA-APC (Perkin-Elmer #CR130-100) were added together in 15 mM Tris pH 7.5, 40 mM EDTA, 0.01% tween 20. Final volume of the quenching solution was 10 μL. The resulting HTRF signal was measured after 30 minutes on a EnVision (Perkin-Elmer) reader using a time-resolved fluorescence protocol.

Row | Structure (SMILES) | IC50 [nM]
1 | CSc1ccnc(Nc2cc(C)cc(-c3cnc(N4CCCNC(=O)C4)s3)c2)n1 [4-[5-(3-methyl-5-{[4-(methylsulfanyl)pyrimidin-2-yl]amino}phenyl)-1,3-thiazol-2-yl]-1,4-diazepan-2-one] | ≤ 100
2 | Cc1cc(Nc2nccc(C(F)(F)F)n2)cc(-c2cnc(N3CCC4(CCNC4)CC3)s2)c1 [Example 1, N-{3-[2-(2,8-diazaspiro[4.5]dec-8-yl)-1,3-thiazol-5-yl]-5-methylphenyl}-4-(trifluoromethyl)-pyrimidin-2-amine] | ≤ 100
3 | OCCNc1ncc(-c2cccc(Nc3nccc(C(F)(F)F)n3)c2)s1 [Example 2] | ≤ 100
4 | OCCN(CCO)c1ncc(-c2cccc(Nc3nccc(C(F)(F)F)n3)c2)s1 [Example 3] | ≤ 100
5 | CN(CCO)c1ncc(-c2cccc(Nc3nccc(C(F)(F)F)n3)c2)s1 [Example 4] | ≤ 100
6 | COCCNc1ncc(-c2cccc(Nc3nccc(C(F)(F)F)n3)c2)s1 [Example 5] | ≤ 100
7 | CCCCN(CCO)c1ncc(-c2cccc(Nc3nccc(C(F)(F)F)n3)c2)s1 [Example 6] | ≤ 100
8 | CN(CC(O)c1ccccc1)c1ncc(-c2cccc(Nc3nccc(C(F)(F)F)n3)c2)s1 (stereo not drawn) [Example 7] | ≤ 100
9 | OCCN(Cc1ccccn1)c1ncc(-c2cccc(Nc3nccc(C(F)(F)F)n3)c2)s1 [Example 8] | ≤ 100
10 | CCC(O)CNc1ncc(-c2cccc(Nc3nccc(C(F)(F)F)n3)c2)s1 (stereo not drawn) [Example 9] | ≤ 100
11 | CCC(CO)Nc1ncc(-c2cccc(Nc3nccc(C(F)(F)F)n3)c2)s1 (stereo not drawn) [Example 10] | ≤ 100
12 | OCC(CO)Nc1ncc(-c2cccc(Nc3nccc(C(F)(F)F)n3)c2)s1 [Example 11] | ≤ 100
13 | OC1COCC1Nc1ncc(-c2cccc(Nc3nccc(C(F)(F)F)n3)c2)s1 (stereo not drawn) [Example 12] | ≤ 100
14 | OC(CNc1ncc(-c2cccc(Nc3nccc(C(F)(F)F)n3)c2)s1)C(F)F (stereo not drawn) [Example 13] | ≤ 100
15 | OCCCNc1ncc(-c2cccc(Nc3nccc(C(F)(F)F)n3)c2)s1 [Example 15] | ≤ 100
16 | CC(C)(CO)CNc1ncc(-c2cccc(Nc3nccc(C(F)(F)F)n3)c2)s1 [Example 16] | ≤ 100
17 | OC1(CCNc2ncc(-c3cccc(Nc4nccc(C(F)(F)F)n4)c3)s2)CCCC1 [Example 17] | ≤ 100
18 | OCCCCNc1ncc(-c2cccc(Nc3nccc(C(F)(F)F)n3)c2)s1 [Example 18] | ≤ 100
19 | O[C@H]1CC[C@H](Nc2ncc(-c3cccc(Nc4nccc(C(F)(F)F)n4)c3)s2)CC1 [Example 19] | ≤ 100
20 | CC(C)C(CO)Nc1ncc(-c2cccc(Nc3nccc(C(F)(F)F)n3)c2)s1 (stereo not drawn) [Example 20] | ≤ 100
21 | CNc1ncc(-c2cccc(Nc3nccc(C(F)(F)F)n3)c2)s1 [Example 21] | ≤ 100
22 | Cn1cncc1CNc1ncc(-c2cccc(Nc3nccc(C(F)(F)F)n3)c2)s1 [Example 22] | ≤ 100
23 | CC(C)(CO)Nc1ncc(-c2cccc(Nc3nccc(C(F)(F)F)n3)c2)s1 [Example 23] | ≤ 100
24 | C=CCN(CC=C)c1ncc(-c2cccc(Nc3nccc(C(F)(F)F)n3)c2)s1 [Example 25] | ≤ 100
25 | OCCCCCCN(Cc1ccccc1)c1ncc(-c2cccc(Nc3nccc(C(F)(F)F)n3)c2)s1 [Example 26] | 100 to 1000

Row | Structure (SMILES) | IC50 [nM]
26 | Cc1cc(Nc2nccc(C(F)(F)F)n2)cc(-c2cnc(N(C)CCO)s2)c1 [Example 27] | ≤ 100
27 | Cc1cc(Nc2nccc(C(F)(F)F)n2)cc(-c2cnc(NCCO)s2)c1 [Example 28] | ≤ 100
28 | CC(C)(O)CNc1ncc(-c2cccc(Nc3nccc(C(F)(F)F)n3)c2)s1 [Example 29] | ≤ 100
29 | COC(=O)c1ccc(N(C)c2ncc(-c3cccc(Nc4nccc(C(F)(F)F)n4)c3)s2)cc1 [Example 30] | 100 to 1000
30 | FC(F)(F)c1ccnc(Nc2cccc(-c3cnc(NCc4cncnc4)s3)c2)n1 [Example 31] | ≤ 100
31 | CC(CO)Nc1ncc(-c2cccc(Nc3nccc(C(F)(F)F)n3)c2)s1 (stereo not drawn) [Example 32] | ≤ 100
32 | CN(Cc1ccccn1)c1ncc(-c2cccc(Nc3nccc(C(F)(F)F)n3)c2)s1 [Example 33] | ≤ 100
33 | CCOCCNc1ncc(-c2cccc(Nc3nccc(C(F)(F)F)n3)c2)s1 [Example 34] | ≤ 100
34 | FC(F)(F)c1ccnc(Nc2cccc(-c3cnc(NCCc4c[nH]cn4)s3)c2)n1 [Example 35] | ≤ 100
35 | CN(c1ncc(-c2cccc(Nc3nccc(C(F)(F)F)n3)c2)s1)C1CCOC1 (stereo not drawn) [Example 36] | ≤ 100
36 | FC(F)(F)c1ccnc(Nc2cccc(-c3cnc(NCc4ccccn4)s3)c2)n1 [Example 37] | ≤ 100
37 | FC(F)CNc1ncc(-c2cccc(Nc3nccc(C(F)(F)F)n3)c2)s1 [Example 38] | ≤ 100
38 | FC(F)(F)c1ccnc(Nc2cccc(-c3cnc(NCc4cccnc4)s3)c2)n1 [Example 39] | ≤ 100
39 | FC(F)(F)c1ccnc(Nc2cccc(-c3cnc(NCCc4cccs4)s3)c2)n1 [Example 40] | 100 to 1000
40 | FC(F)(F)c1ccnc(Nc2cccc(-c3cnc(NCc4c[nH]nn4)s3)c2)n1 [Example 41] | ≤ 100
41 | CCC(C)Nc1ncc(-c2cccc(Nc3nccc(C(F)(F)F)n3)c2)s1 (stereo not drawn) [Example 42] | ≤ 100
42 | FC(F)(F)c1ccnc(Nc2cccc(-c3cnc(NC4CCCC4)s3)c2)n1 [Example 43] | 100 to 1000
43 | CSCCNc1ncc(-c2cccc(Nc3nccc(C(F)(F)F)n3)c2)s1 [Example 44] | ≤ 100
44 | FC(F)(F)c1ccnc(Nc2cccc(-c3cnc(NCC4CCOC4)s3)c2)n1 (stereo not drawn) [Example 45] | ≤ 100
45 | Oc1ccc(CCNc2ncc(-c3cccc(Nc4nccc(C(F)(F)F)n4)c3)s2)cc1 [Example 46] | 100 to 1000
46 | CN(Cc1ccccc1)c1ncc(-c2cccc(Nc3nccc(C(F)(F)F)n3)c2)s1 [Example 48] | 100 to 1000
47 | OCCN(c1ncc(-c2cccc(Nc3nccc(C(F)(F)F)n3)c2)s1)C1CCCC1 [Example 49] | 100 to 1000
48 | COCC(O)CNc1ncc(-c2cccc(Nc3nccc(C(F)(F)F)n3)c2)s1 (stereo not drawn) [Example 50] | ≤ 100
49 | O=C1CCCN1CCNc1ncc(-c2cccc(Nc3nccc(C(F)(F)F)n3)c2)s1 [Example 51] | ≤ 100
50 | CCCN(CCO)c1ncc(-c2cccc(Nc3nccc(C(F)(F)F)n3)c2)s1 [Example 52] | ≤ 100

Row | Structure (SMILES) | IC50 [nM]
51 | CN1CCC(CNc2ncc(-c3cccc(Nc4nccc(C(F)(F)F)n4)c3)s2)C1 (stereo not drawn) [Example 53] | ≤ 100
52 | COc1ccc(CCNc2ncc(-c3cccc(Nc4nccc(C(F)(F)F)n4)c3)s2)cc1 [Example 54] | 100 to 1000
53 | CC(Nc1ncc(-c2cccc(Nc3nccc(C(F)(F)F)n3)c2)s1)c1ccccc1 (stereo not drawn) [Example 55] | 100 to 1000
54 | CC(Cc1cnccn1)Nc1ncc(-c2cccc(Nc3nccc(C(F)(F)F)n3)c2)s1 (stereo not drawn) [Example 56] | ≤ 100
55 | FC(F)(F)c1ccnc(Nc2cccc(-c3cnc(NCc4cccc(N5CCCCC5)c4)s3)c2)n1 [Example 57] | 1000 to 10000
56 | FC(F)(F)c1ccnc(Nc2cccc(-c3cnc(NCC4CCCNC4)s3)c2)n1 (stereo not drawn) [Example 59] | ≤ 100
57 | FC(F)(F)c1ccnc(Nc2cccc(-c3cnc(NCC4CCOCC4)s3)c2)n1 [Example 61] | ≤ 100
58 | Cn1cc(CNc2ncc(-c3cccc(Nc4nccc(C(F)(F)F)n4)c3)s2)cn1 [Example 62] | ≤ 100
59 | Cc1cc(C)n(CCNc2ncc(-c3cccc(Nc4nccc(C(F)(F)F)n4)c3)s2)n1 [Example 63] | 100 to 1000
60 | Fc1c(CNc2ncc(-c3cccc(Nc4nccc(C(F)(F)F)n4)c3)s2)cccc1C(F)(F)F [Example 64] | 100 to 1000
61 | C[C@@H](Nc1ncc(-c2cccc(Nc3nccc(C(F)(F)F)n3)c2)s1)C1CCCCC1 [Example 65] | 1000 to 10000
62 | Cc1cc(CNc2ncc(-c3cccc(Nc4nccc(C(F)(F)F)n4)c3)s2)nn1C [Example 67] | ≤ 100
63 | Cc1cc(CNc2ncc(-c3cccc(Nc4nccc(C(F)(F)F)n4)c3)s2)n(C)n1 [Example 69] | ≤ 100
64 | OCCOCCNc1ncc(-c2cccc(Nc3nccc(C(F)(F)F)n3)c2)s1 [Example 72] | ≤ 100
65 | CCCC[C@@H](CO)Nc1ncc(-c2cccc(Nc3nccc(C(F)(F)F)n3)c2)s1 [Example 74] | ≤ 100
66 | Cc1ccsc1CNc1ncc(-c2cccc(Nc3nccc(C(F)(F)F)n3)c2)s1 [Example 75] | 1000 to 10000
67 | FC(F)(F)c1ccnc(Nc2cccc(-c3cnc(NCc4cccc(-n5cccn5)c4)s3)c2)n1 [Example 76] | ≤ 100
68 | FC(F)(F)c1ccnc(Nc2cccc(-c3cnc(NCc4c[nH]nc4-c4ccccc4)s3)c2)n1 [Example 78] | 100 to 1000
69 | Cc1nn(C)c(C)c1CNc1ncc(-c2cccc(Nc3nccc(C(F)(F)F)n3)c2)s1 [Example 79] | ≤ 100
70 | CSCCC(CO)Nc1ncc(-c2cccc(Nc3nccc(C(F)(F)F)n3)c2)s1 (stereo not drawn) [Example 80] | ≤ 100
71 | Cn1cnc(CNc2ncc(-c3cccc(Nc4nccc(C(F)(F)F)n4)c3)s2)c1 [Example 81] | ≤ 100
72 | OC1CCCC(Nc2ncc(-c3cccc(Nc4nccc(C(F)(F)F)n4)c3)s2)C1 (stereo not drawn) [Example 82] | ≤ 100
73 | Cc1cc(CNc2ncc(-c3cccc(Nc4nccc(C(F)(F)F)n4)c3)s2)no1 [Example 83] | ≤ 100
74 | CCC(CO)Nc1ncc(-c2cc(C)cc(Nc3nccc(C(F)(F)F)n3)c2)s1 (stereo not drawn) [Example 84] | ≤ 100
75 | Cc1cc(Nc2nccc(C(F)(F)F)n2)cc(-c2cnc(NCc3cccnc3)s2)c1 [Example 85] | ≤ 100
